Values quoted from earlier work in patent US5032506A, “Color control system” (priority 1986, dated 1991).

Tested on: diaphorase
Settings: chromogen substrates of diaphorase; literature values (Gella et al. 1981); read-out: Km for the tetrazolium salts

For `O=[N+]([O-])c1ccc(-[n+]2nc(-c3ccccc3)nn2-c2ccc(I)cc2)cc1` [INT], the Km is listed as 870 µM.
For `COc1cc(-c2ccc(-n3nc(-c4ccccc4)n[n+]3-c3ccc([N+](=O)[O-])cc3)c(OC)c2)ccc1-n1nc(-c2ccccc2)n[n+]1-c1ccc([N+](=O)[O-])cc1` [NBT, nitro blue tetrazolium chloride], the Km is listed as 2000 µM.
